Assay results as given in patent US20130197030A1, “Substituted 1,3-Dioxanes and There Uses” (Evolva Sa, priority 2007, published 2013).

Target: T1, Human Recombinant (E. coli) PPARgamma (Homo sapiens, UniProt P37231)
T1 construct: host or cells: E. coli
T1 sequence (P37231 1-505): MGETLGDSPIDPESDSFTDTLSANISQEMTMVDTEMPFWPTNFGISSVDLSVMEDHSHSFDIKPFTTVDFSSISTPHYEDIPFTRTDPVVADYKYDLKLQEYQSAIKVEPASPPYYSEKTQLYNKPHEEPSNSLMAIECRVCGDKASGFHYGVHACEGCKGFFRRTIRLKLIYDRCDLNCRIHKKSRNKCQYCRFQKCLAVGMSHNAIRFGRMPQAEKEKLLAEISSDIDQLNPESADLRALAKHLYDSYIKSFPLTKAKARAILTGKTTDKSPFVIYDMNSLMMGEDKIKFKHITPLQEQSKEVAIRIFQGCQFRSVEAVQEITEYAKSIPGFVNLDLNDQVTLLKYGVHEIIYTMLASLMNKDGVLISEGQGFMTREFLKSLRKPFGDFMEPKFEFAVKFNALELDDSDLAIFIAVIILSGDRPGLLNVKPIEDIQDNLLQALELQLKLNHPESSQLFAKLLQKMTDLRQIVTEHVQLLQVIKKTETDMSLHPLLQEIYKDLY
Test: PPAR gamma binding assay
Conditions: at 30 μM
Protocol: Incubation: 120 min. at 4° C.
The results are expressed as a percent of control specific binding ((measured specific binding/control specific binding)×100) obtained in the presence of the test compounds. The IC50 values (concentration causing a half-maximal inhibition of control specific binding) and Hill coefficients (nil) were determined by non-linear regression analysis of the competition curves generated with mean replicate values using Hill equation curve fitting (Y=D+[(A−D)/(1+(C/C50)nH)], where Y=specific binding, D=minimum specific binding, A=maximum specific binding, C=compound concentration, C50=IC50, and nH=slope factor). This analysis was performed using a software developed at Cerep (Hill software) and validated by comparison with data generated by the commercial software SigmaPlot 4.0 for Windows® (© 1997 by SPSS Inc.). The inhibition constants (Ki) were calculated using the Cheng Prusoff equation (Ki=IC50/(1+(L/KD)), where L=concentration of radioligand in the assay, and KD=affinity of the radioligand for the receptor).

## O=C(O)CC/C=C\C[C@H]1CO[C@@H](c2ccccc2Cl)O[C@H]1c1ccccc1O [Compound B, (Z)-6-((2R,4R,5S)-2-(2-chlorophenyl)-4-(2-hydroxyphenyl)-1,3-dioxan-5-yl)hex-4-enoic acid, reference compound]
  PPARγ binding: no binding
